In US20120077795A1, “BIS-PYRIDYLPYRIDONES AS MELANIN-CONCENTRATING HORMONE RECEPTOR 1 ANTAGONISTS” (GLAXSMITHKLINE LLC, priority 2009, published 2012):

Molecular target: T1, hMCHR1 (Homo sapiens, UniProt Q99705)
T1 construct: expressed in transfected cells; host or cells: HEK293
Experiment: MCHR1 pIC50 determination FLIPR assay (calcium response to MCH challenge)
Type: cell-based
Settings: HEK293 cells stably transfected with hMCHR1; MCH challenge at 4XEC50
Description: MCHR^1 pIC50 Determination FLIPR™ Assay: HEK293 cells stably transfected with hMCHR1 were propagated as adherent cultures at 37° C. in a humidified incubator. Cells were split 1:8 at 90% confluency two times per week. New cell stocks were recovered from storage every two months. Cells were plated in black 384-well plates (Greiner) 24 hours prior to assay at 15,000 cells/well in 50 μL DMEM/F12, 10% FBS, 2 mM I-glutamine. Compounds to be profiled were prepared by making a stock solution at 3×10^−3M in 100% DMSO. The stock solutions were serially diluted 1:4 in 100% DMSO using JANUS (PerkinElmer) liquid handling instrument to allow for an 11 point curve in singlicate. At the time of the assay, the media was removed from the cell plate by aspiration, followed by the addition of 20 μL of loading buffer (Calcium 4 Kit, […]). Following 50 min incubation at 37° C., 10 μL of compound was added to the plates via the FLIPR™ instrument ([…]). The plates were incubated at room temperature for 15 minutes along with an MCH peptide agonist challenge plate. […] The amount of luciferase generated was quantified in a TopCount (PerkinElmer Packard) at 19.8° C. in SPC (single photon counting) mode with a 5 second count/well and subjected to a nonlinear regression analysis curve fitting program to generate pIC50s.

T1 sequence (Q99705 whole entry): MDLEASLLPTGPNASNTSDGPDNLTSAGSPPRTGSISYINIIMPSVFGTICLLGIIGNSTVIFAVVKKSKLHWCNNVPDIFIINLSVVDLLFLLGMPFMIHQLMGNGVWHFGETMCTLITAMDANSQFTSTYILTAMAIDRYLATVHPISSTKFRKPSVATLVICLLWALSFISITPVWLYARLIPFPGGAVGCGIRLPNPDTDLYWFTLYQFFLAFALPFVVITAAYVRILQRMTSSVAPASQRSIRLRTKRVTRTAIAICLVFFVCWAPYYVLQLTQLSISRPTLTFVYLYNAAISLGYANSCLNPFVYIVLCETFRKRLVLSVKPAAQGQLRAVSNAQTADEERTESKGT

In the case of `O=c1cc(OCc2ccc(Cl)cn2)ccn1-c1ccc(N2CC3CONC3C2)nc1` (centres unmarked) [Example 16], the IC50 is reported as 56 nM.

`CNC1C2CN(c3ccc(-n4ccc(OCc5ccc(Cl)cn5)cc4=O)cn3)CC21` (centres unmarked) [Example 14] was tested, and the IC50 was 45 nM.
